Patent US11986557B2, “Stealth nanoparticles” (HOWARD UNIVERSITY, priority 2018, dated 2024)

What was measured:
SKBR3 = assay: In vitro cytotoxicity studies, SKBR3; type: cell-based, human
Protocol: (§1) In vitro cytotoxicity studies were conducted to determine the cytotoxic effect of paclitaxel (as a free drug/not in nanoparticle), 17AAG (free drug), paclitaxel+17AAG combination (as free drugs), and paclitaxel+17AAG combination loaded nanoparticles on two human breast cancer cell lines, SKBR3 and MCF7.
(§2) In preparation of the drug combination treatment, one part of each drug was halved and combined, such that each drug in the combination treatment contained half the concentration of their single drug counterparts. This means that the paclitaxel concentration in the combination treatment is 50% of the paclitaxel (single drug) treatment. In other words, the ratio of the concentration in the single drug to its respective concentration in the combination is 2:1. Also, the drug concentration ratio within the combination (paclitaxel: 17AAG) was approximately 1:1.
(§3) For 5 days of assaying, three plates were treated for each day. The first was treated with paclitaxel solution (single drug) and paclitaxel/17AAG combination solution and second with 17AAG solution (single drug) and paclitaxel/17AAG combination solution. The last plate was treated with the combination drug loaded nanoparticle solution and paclitaxel/17AAG combination solution (free drug).

MCF7 = assay: In vitro cytotoxicity studies, MCF7; type: cell-based, human
Protocol: as §1, §2, §3

[1] = pH 5.0 versus pH 7.4; cited from earlier work

Structure (SMILES) | Cytotoxic effect at low concentrations (SKBR3) | Cytotoxic effect at low concentrations (MCF7) | Hydrolysis rate [1]
C=CCNC1=C2C[C@@H](C)C[C@H](OC)[C@H](O)[C@@H](C)/C=C(\C)[C@H](OC(N)=O)[C@@H](OC)/C=C\C=C(/C)C(=O)NC(=CC1=O)C2=O [Formulation 17AAG, 17 allylamino, 17 demethoxygeldanamycin] | did not show any significant cytotoxic effect | did not show any significant cytotoxic effect | 
C=C(C)C(=O)OCCOC(OCCOC(=O)C(=C)C)c1ccc(OC)cc1OC [di (2-methacryloyloxyethoxy)-[2,4-dimethoxyphenyl]methane] |  |  | hydrolyzes much faster at pH 5.0 than at pH 7.4
